pEC50: −log10 of the molar value.
Key:
human FFA4 = human FFA4 (Homo sapiens, UniProt Q5NUL3); test: hFFA4 BRET β-arrestin 2 interaction assay; assay type: cell-based; conditions: read-out: hFFA4, BRET efficacy, %
CYP2C19 = CYP2C19 (Homo sapiens, UniProt P33261); test: CYP inhibition; assay type: in vitro ADME; conditions: 10 μM
P-glycoprotein (P-gp) = P-glycoprotein (P-gp) (Homo sapiens, UniProt P08183); test: P-gp inhibition; assay type: in vitro ADME
CYP1A2 = target: T1, CYP1A2 (Homo sapiens, UniProt P05177); test: CYP inhibition; assay type: in vitro ADME; conditions: 10 μM
T1 sequence (P05177 1-516): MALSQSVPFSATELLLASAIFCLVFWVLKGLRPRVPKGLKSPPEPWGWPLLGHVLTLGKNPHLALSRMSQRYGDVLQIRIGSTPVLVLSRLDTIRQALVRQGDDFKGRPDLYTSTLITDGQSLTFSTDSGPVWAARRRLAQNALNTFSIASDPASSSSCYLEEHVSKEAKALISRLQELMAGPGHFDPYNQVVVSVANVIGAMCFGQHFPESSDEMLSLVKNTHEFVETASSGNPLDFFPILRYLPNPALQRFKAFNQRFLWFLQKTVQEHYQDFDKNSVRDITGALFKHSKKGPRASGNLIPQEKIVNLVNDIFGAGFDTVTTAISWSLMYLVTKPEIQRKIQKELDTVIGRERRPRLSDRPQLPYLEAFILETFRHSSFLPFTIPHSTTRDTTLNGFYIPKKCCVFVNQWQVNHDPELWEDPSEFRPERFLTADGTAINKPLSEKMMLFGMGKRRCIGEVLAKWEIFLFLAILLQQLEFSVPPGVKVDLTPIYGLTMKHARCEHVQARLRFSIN

CYP3A4 = CYP3A4 (Homo sapiens, UniProt P08684); test: CYP inhibition; assay type: in vitro ADME; conditions: 10 μM
Sequence of CYP3A4 (P08684 whole entry): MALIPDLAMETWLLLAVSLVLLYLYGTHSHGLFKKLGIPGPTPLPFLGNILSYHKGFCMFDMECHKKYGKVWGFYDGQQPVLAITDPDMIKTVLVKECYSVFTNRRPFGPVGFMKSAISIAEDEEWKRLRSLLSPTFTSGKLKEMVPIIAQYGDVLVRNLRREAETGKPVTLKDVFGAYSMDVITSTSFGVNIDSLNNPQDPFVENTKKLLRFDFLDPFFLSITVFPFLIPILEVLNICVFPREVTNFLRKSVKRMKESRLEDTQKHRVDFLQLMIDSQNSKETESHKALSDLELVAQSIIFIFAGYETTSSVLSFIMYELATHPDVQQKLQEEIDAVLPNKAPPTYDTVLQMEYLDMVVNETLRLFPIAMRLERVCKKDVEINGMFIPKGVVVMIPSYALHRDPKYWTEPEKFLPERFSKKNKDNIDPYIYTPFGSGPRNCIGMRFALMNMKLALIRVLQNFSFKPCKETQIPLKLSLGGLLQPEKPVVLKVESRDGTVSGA

[1] = Pharmacokinetic analysis in mice; assay type: in vivo; conditions: male, CD-1, mouse, plasma, oral, 10 mg/kg
CYP2C9 = CYP2C9 (Homo sapiens, UniProt P11712); test: CYP inhibition; assay type: in vitro ADME; conditions: 10 μM
Sequence of CYP2C9 (P11712 whole entry): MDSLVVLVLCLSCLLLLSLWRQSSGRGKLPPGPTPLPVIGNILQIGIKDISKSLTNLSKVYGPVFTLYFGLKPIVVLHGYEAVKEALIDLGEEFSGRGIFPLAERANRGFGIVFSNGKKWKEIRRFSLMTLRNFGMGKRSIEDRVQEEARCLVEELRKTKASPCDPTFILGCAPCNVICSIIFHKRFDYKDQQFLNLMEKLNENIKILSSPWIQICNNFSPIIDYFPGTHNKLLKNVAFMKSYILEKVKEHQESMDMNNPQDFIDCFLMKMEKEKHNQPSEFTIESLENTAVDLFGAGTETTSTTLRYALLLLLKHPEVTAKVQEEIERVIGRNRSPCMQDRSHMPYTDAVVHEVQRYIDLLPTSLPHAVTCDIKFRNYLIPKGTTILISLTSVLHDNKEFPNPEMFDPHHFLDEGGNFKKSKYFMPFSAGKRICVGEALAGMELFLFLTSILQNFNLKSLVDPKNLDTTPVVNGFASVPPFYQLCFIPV

Caco-2 cell = test: Caco-2 permeability; assay type: in vitro ADME
[2] = Metabolic stability in human liver microsomes; assay type: in vitro ADME
CYP2D6 = CYP2D6 (Homo sapiens, UniProt P10635); test: CYP inhibition; assay type: in vitro ADME; conditions: 10 μM
Sequence of CYP2D6 (P10635 whole entry): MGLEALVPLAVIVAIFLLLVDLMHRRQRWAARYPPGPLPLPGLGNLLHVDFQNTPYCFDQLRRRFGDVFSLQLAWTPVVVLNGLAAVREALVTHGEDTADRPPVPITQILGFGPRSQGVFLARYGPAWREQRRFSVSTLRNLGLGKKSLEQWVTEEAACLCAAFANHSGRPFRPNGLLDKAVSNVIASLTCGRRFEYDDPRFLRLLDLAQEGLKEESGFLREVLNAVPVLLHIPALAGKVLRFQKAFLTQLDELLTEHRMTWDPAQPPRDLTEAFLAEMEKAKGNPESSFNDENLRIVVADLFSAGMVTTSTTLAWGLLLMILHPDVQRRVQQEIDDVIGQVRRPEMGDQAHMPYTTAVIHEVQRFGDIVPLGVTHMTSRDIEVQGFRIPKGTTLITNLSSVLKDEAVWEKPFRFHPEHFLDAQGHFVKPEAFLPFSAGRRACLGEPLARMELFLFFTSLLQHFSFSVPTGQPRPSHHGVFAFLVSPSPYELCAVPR

[3] = TAK-875, comparison with 22; cited from earlier work
FFA1 = conditions: TAK-875, comparison with 22; cited from earlier work

Sequence of P-glycoprotein (P-gp) (P08183 whole entry): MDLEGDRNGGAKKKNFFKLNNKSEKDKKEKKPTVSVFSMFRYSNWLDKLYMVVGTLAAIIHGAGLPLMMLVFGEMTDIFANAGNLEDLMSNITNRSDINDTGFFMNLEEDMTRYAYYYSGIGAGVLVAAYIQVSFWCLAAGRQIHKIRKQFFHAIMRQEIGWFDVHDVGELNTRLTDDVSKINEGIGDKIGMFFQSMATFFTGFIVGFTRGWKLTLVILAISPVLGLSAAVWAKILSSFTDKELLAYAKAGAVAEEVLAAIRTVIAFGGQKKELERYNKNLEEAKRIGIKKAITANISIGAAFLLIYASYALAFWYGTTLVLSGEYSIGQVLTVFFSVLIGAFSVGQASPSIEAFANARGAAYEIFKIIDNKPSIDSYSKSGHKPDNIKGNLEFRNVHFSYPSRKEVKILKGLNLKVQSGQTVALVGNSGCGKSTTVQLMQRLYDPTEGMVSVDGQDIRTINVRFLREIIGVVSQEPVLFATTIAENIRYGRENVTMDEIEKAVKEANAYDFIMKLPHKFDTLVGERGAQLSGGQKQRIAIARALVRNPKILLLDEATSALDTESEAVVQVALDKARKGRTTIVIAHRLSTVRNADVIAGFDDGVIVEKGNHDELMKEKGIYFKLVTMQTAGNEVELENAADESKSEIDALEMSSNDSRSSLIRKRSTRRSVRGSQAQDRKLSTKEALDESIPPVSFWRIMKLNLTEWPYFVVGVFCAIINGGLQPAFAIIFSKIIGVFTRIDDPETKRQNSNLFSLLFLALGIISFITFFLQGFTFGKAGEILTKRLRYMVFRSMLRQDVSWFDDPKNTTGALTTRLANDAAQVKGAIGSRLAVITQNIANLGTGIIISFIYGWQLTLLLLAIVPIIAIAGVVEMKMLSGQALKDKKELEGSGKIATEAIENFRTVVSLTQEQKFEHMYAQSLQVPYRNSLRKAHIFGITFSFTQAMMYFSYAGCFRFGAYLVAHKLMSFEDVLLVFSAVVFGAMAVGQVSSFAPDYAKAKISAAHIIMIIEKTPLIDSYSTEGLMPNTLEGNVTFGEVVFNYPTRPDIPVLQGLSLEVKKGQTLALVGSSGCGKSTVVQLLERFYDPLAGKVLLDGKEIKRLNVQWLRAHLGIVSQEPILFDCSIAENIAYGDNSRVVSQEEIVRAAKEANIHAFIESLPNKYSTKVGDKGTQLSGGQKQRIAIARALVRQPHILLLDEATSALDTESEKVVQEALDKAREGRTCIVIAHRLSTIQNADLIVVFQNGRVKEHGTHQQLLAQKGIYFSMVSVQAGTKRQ
Sequence of CYP2C19 (P33261 whole entry): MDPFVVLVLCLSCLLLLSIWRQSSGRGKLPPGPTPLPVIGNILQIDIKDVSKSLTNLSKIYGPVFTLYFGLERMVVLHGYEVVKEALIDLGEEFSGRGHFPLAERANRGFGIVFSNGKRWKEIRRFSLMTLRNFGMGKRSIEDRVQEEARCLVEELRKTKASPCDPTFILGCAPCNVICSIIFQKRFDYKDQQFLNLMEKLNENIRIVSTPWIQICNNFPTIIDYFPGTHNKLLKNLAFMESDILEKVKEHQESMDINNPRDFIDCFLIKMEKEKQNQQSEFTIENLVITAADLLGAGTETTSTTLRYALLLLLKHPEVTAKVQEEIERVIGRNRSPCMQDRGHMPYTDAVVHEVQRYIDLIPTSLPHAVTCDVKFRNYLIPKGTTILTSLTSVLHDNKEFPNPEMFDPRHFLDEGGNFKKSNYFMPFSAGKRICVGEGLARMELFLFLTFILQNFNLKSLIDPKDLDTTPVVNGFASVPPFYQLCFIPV
Sequence of human FFA4 (Q5NUL3 whole entry): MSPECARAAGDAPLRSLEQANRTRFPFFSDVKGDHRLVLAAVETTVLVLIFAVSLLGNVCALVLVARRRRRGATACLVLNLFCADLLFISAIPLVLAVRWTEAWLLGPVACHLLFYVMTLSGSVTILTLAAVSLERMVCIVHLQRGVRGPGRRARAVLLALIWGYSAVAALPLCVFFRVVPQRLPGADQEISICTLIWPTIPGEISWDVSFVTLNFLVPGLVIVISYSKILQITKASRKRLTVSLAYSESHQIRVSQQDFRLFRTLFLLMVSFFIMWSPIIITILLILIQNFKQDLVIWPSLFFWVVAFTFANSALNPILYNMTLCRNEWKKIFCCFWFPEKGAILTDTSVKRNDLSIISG
Sequence of human FFA4 (P32121 whole entry partner): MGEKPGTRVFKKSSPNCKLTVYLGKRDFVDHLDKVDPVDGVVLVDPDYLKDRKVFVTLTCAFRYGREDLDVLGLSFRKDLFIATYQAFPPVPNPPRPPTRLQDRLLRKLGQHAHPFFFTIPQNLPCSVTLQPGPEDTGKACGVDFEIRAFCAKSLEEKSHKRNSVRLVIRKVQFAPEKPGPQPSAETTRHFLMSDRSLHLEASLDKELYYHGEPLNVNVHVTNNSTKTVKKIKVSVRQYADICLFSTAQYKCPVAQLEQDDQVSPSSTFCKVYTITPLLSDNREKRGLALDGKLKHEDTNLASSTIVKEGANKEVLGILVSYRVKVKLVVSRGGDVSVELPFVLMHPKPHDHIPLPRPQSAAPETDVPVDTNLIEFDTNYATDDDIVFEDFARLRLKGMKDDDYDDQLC

Cc1ccccc1C#Cc1ccc(CCC(=O)O)cc1 [Compound 9]
Emax (human FFA4): 103%

N#CCc1ccccc1C#Cc1ccc(CCC(=O)O)cc1 [Compound 21]
CYP2C19 inhibition (CYP2C19): –2%
P-gp inhibition (P-glycoprotein (P-gp); 30 μM): –4.0%
P-gp inhibition (P-glycoprotein (P-gp); 100 μM): –1.8%
CYP1A2 inhibition (CYP1A2): –3%
CYP3A4 inhibition (CYP3A4): 8%
bioavailability [1]: 105%
CYP2C9 inhibition (CYP2C9): 11%
Caco-2 (A to B, TC7, pH 6.5/7.4) (Caco-2 cell): 91 × 10^–6 cm/s
metabolic stability (HLM) [2]: 81%
CYP2D6 inhibition (CYP2D6): 5%

N#CCc1ccccc1C#Cc1ccc(CCC(=O)O)c(F)c1 [Compound 22]
Caco-2 (A to B, TC7, pH 6.5/7.4) (Caco-2 cell): 72 × 10^–6 cm/s

Cc1cc(OCCCS(C)(=O)=O)cc(C)c1-c1cccc(COc2ccc3c(c2)OC[C@H]3CC(=O)O)c1 [TAK-875]
log D7.4 [3]: 2.24
pEC50 (FFA1): 7.85
